From ChEMBL document CHEMBL5465560, “Selectivity Literature for EUbOPEN Chemogenomic Library” (2024)

What was measured:
[1] = biological target: Serine/threonine-protein kinase PLK2 (Homo sapiens, UniProt Q9NYY3); experiment: Selectivity interaction (Kinase panel (Z-LYTE Assay)) EUB0001632a PLK2; settings: at 10 µM
[2] = biological target: Neuromedin-K receptor (Homo sapiens) (UniProt P29371); experiment: Selectivity interaction (Eurofins CEREP Diversity Profile (receptors and ion channels)) EUB0000279b TACR3; settings: at 10 µM
[3] = biological target: T1, Inhibitor of nuclear factor kappa-B kinase subunit beta (Homo sapiens) (UniProt O14920); experiment: Selectivity interaction (KinomeScan (DiscoverX)) EUB0000666a IKBKB; settings: at 10 µM
T1 sequence (whole entry): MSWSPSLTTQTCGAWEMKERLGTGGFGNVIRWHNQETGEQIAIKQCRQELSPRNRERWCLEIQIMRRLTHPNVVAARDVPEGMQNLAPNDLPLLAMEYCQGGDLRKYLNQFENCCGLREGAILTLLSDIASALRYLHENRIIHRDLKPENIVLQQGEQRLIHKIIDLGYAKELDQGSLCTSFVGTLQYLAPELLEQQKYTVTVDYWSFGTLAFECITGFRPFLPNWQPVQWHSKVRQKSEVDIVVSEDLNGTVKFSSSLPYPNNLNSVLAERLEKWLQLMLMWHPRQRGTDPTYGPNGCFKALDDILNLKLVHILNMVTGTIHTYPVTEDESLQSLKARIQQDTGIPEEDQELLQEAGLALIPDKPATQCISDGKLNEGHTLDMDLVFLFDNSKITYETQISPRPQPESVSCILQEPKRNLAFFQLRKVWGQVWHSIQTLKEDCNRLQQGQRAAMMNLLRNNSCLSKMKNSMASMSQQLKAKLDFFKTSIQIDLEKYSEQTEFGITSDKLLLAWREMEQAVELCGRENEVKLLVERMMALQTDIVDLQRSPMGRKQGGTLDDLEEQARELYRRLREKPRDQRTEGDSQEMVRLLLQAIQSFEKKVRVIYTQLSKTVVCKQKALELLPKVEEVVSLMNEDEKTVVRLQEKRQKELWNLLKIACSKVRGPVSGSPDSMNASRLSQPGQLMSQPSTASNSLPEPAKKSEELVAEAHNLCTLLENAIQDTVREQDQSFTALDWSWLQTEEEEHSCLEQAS

[4] = biological target: T2, Inhibitor of nuclear factor kappa-B kinase subunit alpha (Homo sapiens) (UniProt O15111); experiment: Selectivity interaction (ActivX KiNativ screen (kinase selectivity in THP-1 cell lysates)) EUB0000639a CHUK; format: subcellular; settings: lysate
T2 sequence (whole entry): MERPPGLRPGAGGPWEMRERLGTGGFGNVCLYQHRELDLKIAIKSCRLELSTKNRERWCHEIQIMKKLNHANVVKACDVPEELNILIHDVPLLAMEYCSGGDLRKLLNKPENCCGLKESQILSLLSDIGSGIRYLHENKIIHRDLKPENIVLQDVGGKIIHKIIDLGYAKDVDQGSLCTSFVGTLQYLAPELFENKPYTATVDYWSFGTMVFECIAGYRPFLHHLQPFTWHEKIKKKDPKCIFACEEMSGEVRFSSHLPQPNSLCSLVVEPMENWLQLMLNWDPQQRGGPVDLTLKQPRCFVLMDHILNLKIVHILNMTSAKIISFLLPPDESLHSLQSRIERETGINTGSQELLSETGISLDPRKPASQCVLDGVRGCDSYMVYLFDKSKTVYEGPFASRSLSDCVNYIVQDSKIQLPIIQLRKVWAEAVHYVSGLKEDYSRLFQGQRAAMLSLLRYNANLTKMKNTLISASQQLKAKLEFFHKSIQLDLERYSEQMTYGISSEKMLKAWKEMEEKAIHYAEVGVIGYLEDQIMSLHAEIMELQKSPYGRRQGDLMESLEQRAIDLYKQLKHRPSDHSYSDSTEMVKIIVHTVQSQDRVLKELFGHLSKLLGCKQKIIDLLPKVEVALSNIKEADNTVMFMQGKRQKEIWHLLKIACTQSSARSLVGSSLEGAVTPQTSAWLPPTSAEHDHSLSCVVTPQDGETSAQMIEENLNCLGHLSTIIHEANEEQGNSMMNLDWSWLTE

[5] = biological target: Serine/threonine-protein kinase tousled-like 2 (Homo sapiens) (UniProt Q86UE8); experiment: Selectivity interaction (KinomeScan (DiscoverX)) EUB0000695a TLK2; settings: at 100 nM
[6] = biological target: Fibroblast growth factor receptor 2 (Homo sapiens) (UniProt P21802); experiment: Selectivity interaction (Kinase panel (DSF assay)) EUB0001558a FGFR2
[7] = biological target: Serine/threonine-protein kinase 16 (Homo sapiens, UniProt O75716); experiment: Selectivity interaction (KinomeScan (DiscoverX)) EUB0000655a STK16; settings: at 10 µM
[8] = biological target: G protein-coupled receptor kinase 4 (Homo sapiens) (UniProt P32298); experiment: Selectivity interaction (KinomeScan (DiscoverX)) EUB0000229b GRK4; settings: at 10 µM
Ephrin type-A receptor 4 = Ephrin type-A receptor 4 (Homo sapiens, UniProt P54764); experiment: Selectivity interaction (KinomeScan (DiscoverX)) EUB0000229b EPHA4; settings: at 10 µM
[9] = biological target: Ribosomal protein S6 kinase beta-1 (Homo sapiens, UniProt P23443); settings: at 10 µM
[10] = biological target: Tyrosine-protein kinase Fer (Homo sapiens) (UniProt P16591); settings: at 10 µM
[11] = biological target: Calcium/calmodulin-dependent protein kinase type II subunit alpha (Homo sapiens, UniProt Q9UQM7); settings: at 10 µM
[12] = biological target: Myosin light chain kinase, smooth muscle (Homo sapiens, UniProt Q15746); experiment: Selectivity interaction (KinomeScan (DiscoverX)) EUB0000618a MYLK; settings: at 10 µM
Myosin light chain kinase, smooth muscle, sequence (Q15746 whole entry): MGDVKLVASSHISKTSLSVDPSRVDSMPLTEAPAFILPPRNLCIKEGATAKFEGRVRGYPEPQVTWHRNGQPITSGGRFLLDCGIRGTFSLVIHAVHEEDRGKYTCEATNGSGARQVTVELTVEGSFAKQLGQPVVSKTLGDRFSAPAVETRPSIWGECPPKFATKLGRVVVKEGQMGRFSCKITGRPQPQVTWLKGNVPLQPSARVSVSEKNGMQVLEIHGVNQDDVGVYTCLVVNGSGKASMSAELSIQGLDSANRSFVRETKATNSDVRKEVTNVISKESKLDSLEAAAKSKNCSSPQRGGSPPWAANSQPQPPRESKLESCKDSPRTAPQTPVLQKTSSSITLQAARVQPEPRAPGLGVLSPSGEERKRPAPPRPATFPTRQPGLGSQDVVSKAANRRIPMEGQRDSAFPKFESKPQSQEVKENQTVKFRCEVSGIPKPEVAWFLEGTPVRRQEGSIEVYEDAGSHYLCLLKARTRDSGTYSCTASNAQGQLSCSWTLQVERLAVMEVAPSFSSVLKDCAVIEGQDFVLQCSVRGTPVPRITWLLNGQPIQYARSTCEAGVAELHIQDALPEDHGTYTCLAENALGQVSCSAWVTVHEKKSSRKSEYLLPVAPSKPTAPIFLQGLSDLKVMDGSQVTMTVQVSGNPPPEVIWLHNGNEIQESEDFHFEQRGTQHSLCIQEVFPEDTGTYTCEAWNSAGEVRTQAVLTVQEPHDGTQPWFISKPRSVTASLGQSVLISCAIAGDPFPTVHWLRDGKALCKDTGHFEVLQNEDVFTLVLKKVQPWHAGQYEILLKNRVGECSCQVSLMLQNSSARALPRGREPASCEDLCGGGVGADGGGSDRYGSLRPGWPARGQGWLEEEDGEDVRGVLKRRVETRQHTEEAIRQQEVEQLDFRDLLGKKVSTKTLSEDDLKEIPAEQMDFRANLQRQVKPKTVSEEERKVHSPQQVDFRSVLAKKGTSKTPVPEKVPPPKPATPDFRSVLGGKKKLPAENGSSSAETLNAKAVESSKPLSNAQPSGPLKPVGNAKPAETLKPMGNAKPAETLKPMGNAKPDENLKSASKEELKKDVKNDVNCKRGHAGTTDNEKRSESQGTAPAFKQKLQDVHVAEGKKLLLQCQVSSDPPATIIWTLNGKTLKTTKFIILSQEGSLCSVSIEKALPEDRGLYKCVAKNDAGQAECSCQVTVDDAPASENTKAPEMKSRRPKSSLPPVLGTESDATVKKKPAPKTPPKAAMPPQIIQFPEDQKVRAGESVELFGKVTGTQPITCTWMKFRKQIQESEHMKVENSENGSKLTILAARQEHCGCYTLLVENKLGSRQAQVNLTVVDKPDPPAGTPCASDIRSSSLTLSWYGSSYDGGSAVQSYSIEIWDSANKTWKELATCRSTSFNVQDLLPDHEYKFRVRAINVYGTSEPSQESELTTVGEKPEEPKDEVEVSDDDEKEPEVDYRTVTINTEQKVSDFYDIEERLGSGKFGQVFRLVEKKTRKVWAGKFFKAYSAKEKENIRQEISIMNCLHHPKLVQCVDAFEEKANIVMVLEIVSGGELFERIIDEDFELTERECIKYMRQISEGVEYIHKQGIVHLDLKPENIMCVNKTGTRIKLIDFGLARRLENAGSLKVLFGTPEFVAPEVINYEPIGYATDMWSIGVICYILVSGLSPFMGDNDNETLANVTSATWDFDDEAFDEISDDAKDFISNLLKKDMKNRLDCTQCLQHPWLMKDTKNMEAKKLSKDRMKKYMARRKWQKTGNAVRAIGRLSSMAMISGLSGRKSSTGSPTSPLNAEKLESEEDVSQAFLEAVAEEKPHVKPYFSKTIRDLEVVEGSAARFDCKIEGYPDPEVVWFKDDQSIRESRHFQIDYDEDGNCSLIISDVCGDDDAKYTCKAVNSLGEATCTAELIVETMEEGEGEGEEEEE

Ribosomal protein S6 kinase beta-1, sequence (P23443 whole entry, looked up): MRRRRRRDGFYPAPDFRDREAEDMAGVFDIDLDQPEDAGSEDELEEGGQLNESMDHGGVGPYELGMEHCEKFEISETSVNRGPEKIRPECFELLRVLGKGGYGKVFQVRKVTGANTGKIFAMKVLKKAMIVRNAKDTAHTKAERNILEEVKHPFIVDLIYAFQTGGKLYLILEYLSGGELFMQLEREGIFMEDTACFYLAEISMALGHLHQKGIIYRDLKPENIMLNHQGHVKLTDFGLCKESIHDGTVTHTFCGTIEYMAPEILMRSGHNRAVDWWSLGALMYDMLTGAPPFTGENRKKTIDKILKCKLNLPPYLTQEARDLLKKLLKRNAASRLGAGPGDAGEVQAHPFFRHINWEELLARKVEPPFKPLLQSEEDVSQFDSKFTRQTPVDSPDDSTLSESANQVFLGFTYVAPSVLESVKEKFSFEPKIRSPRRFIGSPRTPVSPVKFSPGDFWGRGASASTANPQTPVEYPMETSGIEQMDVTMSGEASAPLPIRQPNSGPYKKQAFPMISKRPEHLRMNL
Serine/threonine-protein kinase PLK2, sequence (Q9NYY3 whole entry, looked up): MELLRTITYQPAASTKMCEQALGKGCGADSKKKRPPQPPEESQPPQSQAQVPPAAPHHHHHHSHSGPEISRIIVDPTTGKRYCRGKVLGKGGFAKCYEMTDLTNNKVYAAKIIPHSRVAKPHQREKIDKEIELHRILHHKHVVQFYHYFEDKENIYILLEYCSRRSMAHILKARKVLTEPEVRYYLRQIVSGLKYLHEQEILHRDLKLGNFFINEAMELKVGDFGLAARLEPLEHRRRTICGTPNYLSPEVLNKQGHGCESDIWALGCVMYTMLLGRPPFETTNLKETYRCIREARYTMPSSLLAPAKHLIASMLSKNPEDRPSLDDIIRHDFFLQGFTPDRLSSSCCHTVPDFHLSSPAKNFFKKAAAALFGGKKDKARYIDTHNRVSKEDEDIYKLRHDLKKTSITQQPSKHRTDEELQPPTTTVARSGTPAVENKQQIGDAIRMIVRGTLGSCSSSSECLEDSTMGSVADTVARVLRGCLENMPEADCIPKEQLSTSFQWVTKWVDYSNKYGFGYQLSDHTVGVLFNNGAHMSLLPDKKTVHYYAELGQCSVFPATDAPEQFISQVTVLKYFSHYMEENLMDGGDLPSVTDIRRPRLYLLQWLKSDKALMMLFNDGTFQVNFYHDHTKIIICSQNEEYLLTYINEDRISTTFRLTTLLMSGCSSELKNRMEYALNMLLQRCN
Serine/threonine-protein kinase 16, sequence (O75716 whole entry): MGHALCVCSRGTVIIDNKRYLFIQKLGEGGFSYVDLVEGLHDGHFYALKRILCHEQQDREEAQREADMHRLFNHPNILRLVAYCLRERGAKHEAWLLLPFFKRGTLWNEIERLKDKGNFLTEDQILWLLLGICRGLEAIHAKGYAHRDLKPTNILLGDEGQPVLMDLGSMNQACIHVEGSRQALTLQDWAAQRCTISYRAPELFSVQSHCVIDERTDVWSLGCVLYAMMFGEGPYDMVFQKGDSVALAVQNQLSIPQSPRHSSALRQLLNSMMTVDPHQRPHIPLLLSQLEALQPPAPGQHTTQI
Neuromedin-K receptor (Homo sapiens), sequence (P29371 whole entry): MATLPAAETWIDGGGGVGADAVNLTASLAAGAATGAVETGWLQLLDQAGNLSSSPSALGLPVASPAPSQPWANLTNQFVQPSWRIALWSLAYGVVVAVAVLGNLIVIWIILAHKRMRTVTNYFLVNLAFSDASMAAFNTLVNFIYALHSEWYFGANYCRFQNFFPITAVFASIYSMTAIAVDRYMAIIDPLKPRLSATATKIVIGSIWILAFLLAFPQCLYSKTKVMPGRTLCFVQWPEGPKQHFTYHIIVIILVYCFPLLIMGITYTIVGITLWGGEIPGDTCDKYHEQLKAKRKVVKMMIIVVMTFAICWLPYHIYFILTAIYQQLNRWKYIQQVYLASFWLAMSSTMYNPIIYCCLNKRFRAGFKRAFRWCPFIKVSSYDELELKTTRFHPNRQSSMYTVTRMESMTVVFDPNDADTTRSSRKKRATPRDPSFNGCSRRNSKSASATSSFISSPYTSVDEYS
Serine/threonine-protein kinase tousled-like 2 (Homo sapiens), sequence (Q86UE8 whole entry, looked up): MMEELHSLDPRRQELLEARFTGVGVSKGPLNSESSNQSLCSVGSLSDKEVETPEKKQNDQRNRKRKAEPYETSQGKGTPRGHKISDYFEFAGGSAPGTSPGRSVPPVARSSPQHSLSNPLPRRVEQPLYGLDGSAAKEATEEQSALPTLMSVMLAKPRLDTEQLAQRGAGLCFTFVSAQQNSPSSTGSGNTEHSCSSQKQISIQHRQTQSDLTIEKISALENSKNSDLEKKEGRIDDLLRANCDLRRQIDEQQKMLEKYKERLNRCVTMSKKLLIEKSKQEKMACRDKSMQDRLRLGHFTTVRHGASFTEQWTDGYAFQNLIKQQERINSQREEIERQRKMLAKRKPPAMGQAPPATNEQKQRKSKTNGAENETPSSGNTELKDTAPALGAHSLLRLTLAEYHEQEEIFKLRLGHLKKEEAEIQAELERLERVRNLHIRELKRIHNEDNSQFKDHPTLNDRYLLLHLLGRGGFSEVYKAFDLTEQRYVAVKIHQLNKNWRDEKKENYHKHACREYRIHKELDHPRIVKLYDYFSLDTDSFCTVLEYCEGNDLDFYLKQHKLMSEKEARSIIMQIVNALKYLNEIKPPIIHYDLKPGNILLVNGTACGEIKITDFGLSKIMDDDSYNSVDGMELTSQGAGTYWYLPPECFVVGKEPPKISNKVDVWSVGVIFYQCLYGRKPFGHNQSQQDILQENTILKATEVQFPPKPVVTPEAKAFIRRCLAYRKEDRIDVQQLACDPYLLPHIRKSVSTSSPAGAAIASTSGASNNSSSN

Cn1cc(-n2cnc3c(NCc4nc5cc(Cl)c(Cl)cc5[nH]4)nc(N4CCOCC4)nc32)cn1
% of control [1]: -0.658%

CC(=O)c1cc(-c2ccccc2OCC2CC2)c2ncccn12
% of control [2]: 85%

O=C(NOC[C@H](O)CO)c1ccc(F)c(F)c1Nc1ccc(I)cc1F
% of control [3]: 79%

CC[C@@H]1[C@H](F)C(=O)N[C@@H]1COc1nccc2cc(C(N)=O)c(OC)cc12 [ZIMLOVISERTIB]
% of inhibition ([4]; at 0.01 µM): 1.5% | % of inhibition ([4]; at 0.04 µM): -2.5% | % of inhibition ([4]; at 0.2 µM): 7.8% | % of inhibition ([4]; at 1 µM): 6.7% | % of inhibition ([4]; at 5 µM): -16.4%

Cc1cc(F)c(C(=O)Nc2cccc(-c3nncn3C(C)C)n2)cc1-n1cnc(C2CC2)c1
% of control [5]: 100%

CC(C)(O)[C@H](F)CN1Cc2cc(NC(=O)c3cnn4cccnc34)c(N3CCOCC3)cc2C1=O
dTM [6]: 1 K

CN(C)CCOc1ccc(-c2nc(-c3ccncc3)c(-c3ccc4c(c3)CC/C4=N\O)[nH]2)cc1
% of control [7]: 94%

COc1cc(N(C)c2ccnc3ccc(C(F)(F)F)cc23)cc(OC)c1OC
% binding [8]: 90% | % binding (Ephrin type-A receptor 4): 100%

Cc1cc([C@@H](C)Nc2ccccc2C(=O)O)c2nc(N3CCOCC3)cc(=O)n2c1 [AZD-6482]
% of control [9]: 72% | % of control [10]: 100% | % of control [11]: 75%

O[C@H]1CC[C@H](Nc2ncc3nc(Nc4c(F)cc(F)cc4F)n([C@H]4CCOC4)c3n2)CC1
% of control [12]: 65%
